Experimental data reported in patent US12662478B2, “ATF6 modulators and uses thereof” (Altos Labs, Inc., priority 2019, dated 2026).

Experiments:
[1] = target: T1, ATF6 (Homo sapiens, UniProt P18850); assay: ERSE ATF6-luciferase assay in absence of ER stress (U2-OS ATF6 TRE-luciferase reporter cells); assay type: cell-based; conditions: normalized to maximal activation with Tg; for activation at 1 µM / activation at 10 µM: U2OS, 8 h; for activation at 1 µM / activation at 10 µM / ATF6 activity @ 1 μM-No Tg [%] / ATF6 activity @ 10 μM - No Tg [%]: in absence of ER stress (no Tg); for activation at 1 µM: Table 3-3, read-out: ATF6 activity @ 1 μM-No Tg [%]; for activation at 10 µM / ATF6 activity @ 10 μM - No Tg [%]: 10 μM test compound; for activation at 10 µM: Table 3-3, read-out: ATF6 activity @ 10 μM - No Tg [%]; for ATF6 activity @ 1 μM-No Tg [%] / ATF6 activity @ 10 μM - No Tg [%]: Table 3-3
T1 construct: endogenous in cells; host or cells: U2-OS (ATCC HTB-96) stably transduced with the Cignal Lenti ATF6 luc reporter (Qiagen #CLS-6031L)
T1 sequence (P18850 1-670): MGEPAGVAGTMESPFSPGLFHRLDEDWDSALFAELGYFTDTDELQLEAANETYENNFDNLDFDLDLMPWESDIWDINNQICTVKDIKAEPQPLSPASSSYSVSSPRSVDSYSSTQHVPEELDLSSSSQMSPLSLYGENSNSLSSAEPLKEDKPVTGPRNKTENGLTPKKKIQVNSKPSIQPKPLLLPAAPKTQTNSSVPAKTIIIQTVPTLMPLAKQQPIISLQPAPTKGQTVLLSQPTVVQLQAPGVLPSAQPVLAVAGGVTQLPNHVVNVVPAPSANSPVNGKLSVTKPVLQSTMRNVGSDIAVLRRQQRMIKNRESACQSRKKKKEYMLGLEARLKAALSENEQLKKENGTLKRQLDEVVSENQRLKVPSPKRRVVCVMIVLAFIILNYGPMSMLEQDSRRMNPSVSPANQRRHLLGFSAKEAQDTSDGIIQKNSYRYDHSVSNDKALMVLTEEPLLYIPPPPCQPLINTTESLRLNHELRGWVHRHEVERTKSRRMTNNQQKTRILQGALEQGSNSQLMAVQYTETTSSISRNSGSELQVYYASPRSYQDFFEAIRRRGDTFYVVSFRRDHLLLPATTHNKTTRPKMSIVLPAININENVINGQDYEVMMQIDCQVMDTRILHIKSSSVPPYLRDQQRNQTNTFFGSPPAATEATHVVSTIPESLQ
Protocol: (§1) To understand how exemplary compounds of the invention modulate the activity of ATF6 in absence or presence of endoplasmic reticulum (ER) stress, a Human bone osteosarcoma (U2-OS)-based TRE-luciferase reporter stable cell line was generated to determine the modulation of transcription of ATF6 target genes.
(§2) U2-OS cells were obtained from the American Type Culture Collection (ATCC HTB-96, ATCC Manassas, VA) and were cultured with growing medium containing Dulbecco's Modified Eagle's Medium (DMEM) (Cat. No.: SH30023.02, HyClone) supplemented with fetal bovine serum (FBS) 10% (Cat. No.: 16000044, Gibco) and 1% penicillin-streptomycin antibiotic cocktail (Cat. No.: SV30010, Hyclone).
(§3) Cignal Lenti ATF6 luc reporter (Qiagen #CLS-6031L) was used to produce a stable cell line in U2-OS cells (U2-OS ATF6 TRE-luciferase reporter). The lenti ATF6 reporter is a preparation of replication incompetent, VSV-g pseudotyped lentivirus particles expressing the firefly luciferase gene under the control of a minimal (m)CMV promoter and tandem repeats of the ATF6 transcriptional response element (TRE). The number of response elements as well as the intervening sequence between response elements has been experimentally optimized to maximize the signal to noise ratio.
(§4) Exemplary compounds of the invention and reference compounds were prepared from powder as 10 mM stock solutions in dimethyl sulfoxide (DMSO; Cat. No. #D2650, Sigma Aldrich) and stored at −80° C. in presence of N2 neutral atmosphere.
(§5) For the primary screening, 40,000 U2-OS ATF6 TRE-luciferase reporter cells were plated in poly-D-lysine (Cat. No.: P2636, Sigma) pre-coated white 96-well plates (Thermo Scientific Nunc #136101) with 100 μL of growing medium. Cells were incubated in humidified chambers for 24 hr.
For testing exemplary compounds in absence of ER-stress, cells were treated for 8 hr with 100 μL growing medium containing either vehicle (DMSO), 1 or 10 μM test compound or 0.1 μM Tg. The final concentration of DMSO in each well was kept at 0.3%. Plates were incubated in humidified chambers.
After 8 hr of incubation, plates were cooled down to room temperature for 10 min prior to luciferase assays. Luciferase reactions were performed as above. Luminescence was read by integration of 1 s with a gain of 110 in a Synergy 4 Microplate reader. All measurements were carried out in triplicate.
The average activity determined from the wells containing vehicle only (DMSO, 0% of ATF6 activity) was used as blank and subtracted from the rest of measurements. The percentage of modulation of exemplary compound was calculated by normalizing values to potential maximal activation with Tg.
ATF6 activities of exemplary compounds at 1 and 10 μM in absence of Tg-induced ER stress in the U2-OS ATF6 TRE-luciferase reporter cells were determined and are shown in Table 3-2, and Table 3-3.

[2] = target: T1, ATF6; assay: ERSE ATF6-luciferase assay in presence of Tg-induced ER stress (U2-OS ATF6 TRE-luciferase reporter cells); assay type: cell-based; conditions: in presence of ER stress (thapsigargin), Tg only = 100%; for ATF6 activity @ 1 μM [%] / activity at 1 µM: 1 μM test compound; for ATF6 activity @ 1 μM [%] / ATF6 activity @ 10 μM [%]: 8 hr; for ATF6 activity @ 10 μM [%] / activity at 10 µM: 10 μM test compound; for activity at 1 µM / activity at 10 µM: U2OS, 8 h
Protocol: as §1, §2, §3, §4, §5
For testing exemplary compounds in presence of ER-stress, cells were pre-treated for 30 min with 50 μL growing medium containing either vehicle (DMSO), 1 or 10 μM test compound. After this pre-incubation, 50 μL of a solution containing 0.2 μM of the ER stress-inducer thapsigargin (Tg) was added to the appropriate wells. The Tg solution also contains vehicle or test compounds at 1 or 10 μM as indicated. The final concentration of DMSO in each well was kept at 0.3%. Plates were incubated for 8 hr in humidified chambers.
After the 8 hr incubation, plates were cooled down to room temperature for 10 min prior to the luciferase assays. Luciferase reactions were performed using Luciferase Assay System (Cat. No.: E4550, Promega). Briefly, each well was washed with 100 μl of PBS 1× and, then, 20 μl of lysis reagent was added into each well. Plates were shaken for 10 min and, then, 50 μl of Luciferase Assay Reagent was added to each well. Luminescence was determined by integration of 1 s with a gain of 110 in a Synergy 4 Microplate reader. All measurements were carried out in triplicate.
The average activity determined from the wells containing vehicle only (DMSO, 0% of ATF6 activity) was used as blank and subtracted from the rest of measurements. The average activity determined from the wells containing Tg only was used as 100% of ATF6 activity. The percentage of modulation of exemplary compounds was calculated by normalizing values to potential maximal activation with Tg.
ATF6 activities of exemplary compounds at 1 and 10 μM in presence Tg-induced ER stress tested in the U2-OS ATF6 TRE-luciferase reporter cells were determined and are shown in Table 2-2 and Table 3-2.

| Compound | ATF6 activity @ 1 μM [%] ([1]; 1 μM test compound, in absence of ER stress, 8 hr, Table 3-2) | ATF6 activity @ 1 μM [%] ([2]; Table 2-2) | ATF6 activity @ 1 μM [%] ([2]; Table 2-3) | ATF6 activity @ 10 μM [%] ([2]; Table 2-2) | ATF6 activity @ 10 μM [%] ([2]; Table 2-3) | activation at 1 µM ([1]; 1 μM test compound) [%] | activation at 10 µM [1] [%] | activity at 1 µM ([2]; Table 2-3) [%] | activity at 10 µM ([2]; Table 2-3) [%] | ATF6 activity @ 1 μM-No Tg [%] ([1]; 1 μM test compound, 8 hr) | ATF6 activity @ 10 μM - No Tg [%] ([1]; 8 hr) |
| --- | --- | --- | --- | --- | --- | --- | --- | --- | --- | --- | --- |
| O=C(Nc1cnn(Cc2ccc(C(F)(F)F)cc2)c1)c1cc(-c2ccco2)on1 [Ceapin-A8, reference compound] | + (+ refers to 0% < % activity < 25% at 1 or 10 μM test compound) | + (+ refers to 100% < % activity < 125% at 1 or 10 μM) | + (+ refers to 100% < % activity < 125% at 1 or 10 μM) | − (− refers to 75% < % activity < 100% at 1 or 10 μM) | − (− refers to 75% < % activity < 100% at 1 or 10 μM) |  |  |  |  |  |  |
| O=C(Nc1cnn(Cc2c(Cl)cncc2Cl)c1)c1cc(-c2ccco2)on1 [Compound 3-6, N-(1-((3,5-dichloropyridin-4-yl)methyl)-1H-pyrazol-4-yl)-5-(furan-2-yl)isoxazole-3-carboxamide] |  |  |  |  |  | 0 to 25 | 0 to 25 | 100 to 125 | 125 to 150 |  |  |
| O=C(Nc1cnn(CC2CCCC2)c1)c1cc(-c2ccco2)on1 [Compound 3-2, N-(1-(cyclopentylmethyl)-1H-pyrazol-4-yl)-5-(furan-2-yl)isoxazole-3-carboxamide] |  |  |  |  |  | 0 to 25 | 0 to 25 | > 150 | > 150 |  |  |
| O=C(Nc1cnn(C2CCOC2)c1)c1cc(-c2ccccn2)on1 (single isomer, unassigned) [Compound 3-21, 5-(pyridin-2-yl)-N-(1-(tetrahydrofuran-3-yl)-1H-pyrazol-4-yl)isoxazole-3-carboxamide] |  |  | +++ (+++ refers to >150% at 1 or 10 μM test compound) |  | +++ (+++ refers to >150% at 1 or 10 μM test compound) |  |  |  |  | + (+ refers to 0% < % activity < 25% at 1 or 10 μM test compound) | ++ (++ refers to 25% < % activity < 50% at 1 or 10 μM test compound) |
| CC(C1CCOC1)n1cc(NC(=O)c2cc(-c3ccco3)on2)cn1 (stereo not drawn) [Compound 3-25, 5-(furan-2-yl)-N-(1-(1-(tetrahydrofuran-3-yl)ethyl)-1H-pyrazol-4-yl)isoxazole-3-carboxamide] |  |  | + (+ refers to 100% < % activity < 125% at 1 or 10 μM) |  | +++ (+++ refers to >150% at 1 or 10 μM test compound) |  |  |  |  | + (+ refers to 0% < % activity < 25% at 1 or 10 μM test compound) | + (+ refers to 0% < % activity < 25% at 1 or 10 μM test compound) |
| CC(C1CCOC1)n1cc(NC(=O)c2cc(-c3ccco3)on2)cn1 (stereo not drawn) [Compound 3-26, 5-(furan-2-yl)-N-(1-(1-(tetrahydrofuran-3-yl)ethyl)-1H-pyrazol-4-yl)isoxazole-3-carboxamide] |  |  | +++ (+++ refers to >150% at 1 or 10 μM test compound) |  | +++ (+++ refers to >150% at 1 or 10 μM test compound) |  |  |  |  | + (+ refers to 0% < % activity < 25% at 1 or 10 μM test compound) | +++ (+++ refers to % activity >50 % at 1 or 10 μM test compound) |
| O=C(Nc1cnn(C2CCOC2)c1)c1cc(-c2cccs2)on1 (single isomer, unassigned) [Compound 3-22, N-(1-(tetrahydrofuran-3-yl)-1H-pyrazol-4-yl)-5-(thiophen-2-yl)isoxazole-3-carboxamide] |  |  | ++ (++ refers to 125% < % activity < 150% at 1 or 10 μM test compound) |  |  |  |  |  | > 150 | + (+ refers to 0% < % activity < 25% at 1 or 10 μM test compound) | ++ (++ refers to 25% < % activity < 50% at 1 or 10 μM test compound) |
| O=C(Nc1cnn(C2CCOC2)c1)c1cc(-c2cccs2)on1 (single isomer, unassigned) [Compound 3-23, N-(1-(tetrahydrofuran-3-yl)-1H-pyrazol-4-yl)-5-(thiophen-2-yl)isoxazole-3-carboxamide] |  |  | +++ (+++ refers to >150% at 1 or 10 μM test compound) |  | +++ (+++ refers to >150% at 1 or 10 μM test compound) |  |  |  |  | ++ (++ refers to 25% < % activity < 50% at 1 or 10 μM test compound) | +++ (+++ refers to % activity >50 % at 1 or 10 μM test compound) |
